Key:
Experiment in all cases: Glasshouse herbicidal test, pre- and post-emergence (Table B1)
Type in all cases: in vivo
[1] = system: Setaria faberi (SETFA); conditions: 130 g/h, evaluated after 13 days; for percentage damage caused to the plant, POST Application SETFA: post-emergence; for percentage damage caused to the plant, PRE Application SETFA: pre-emergence
Protocol: (§1) Seeds of a variety of test species are sown in standard soil in pots (Lolium perenne (LOLPE), Amaranthus retoflexus (AMARE), Amaranthus palmeri (AMAPA), Ablution theophrasti (ABUTH), Setaria faberi (SETFA), Echinochloa crus-galli (ECHCG), Ipomoea hederacea (IPOHE)). After cultivation for one day (pre-emergence) or after 8 days cultivation (post-emergence) under controlled conditions in a glasshouse (at 24/16° C., day/night; 14 hours light; 65% humidity), the plants are sprayed with an aqueous spray solution derived from the formulation of the technical active ingredient in acetone/water (50:50) solution containing 0.5% Tween 20 (polyoxyethelyene sorbitan monolaurate, CAS RN 9005-64-5). Compounds are applied at 130 g/h unless otherwise indicated. The test plants are then grown in a glasshouse under controlled conditions in a glasshouse (at 24/16° C., day/night; 14 hours light; 65% humidity) and watered twice daily. After 13 days for pre and post-emergence, the test is evaluated for the percentage damage caused to the plant. The biological activities are shown in the following table on a five-point scale (5=80-100%; 4=60-79%; 3=40-59%; 2=20-39%; 1=0-19%).

[2] = system: Ipomoea hederacea (IPOHE); conditions: 130 g/h, evaluated after 13 days; for percentage damage caused to the plant, POST Application IPOHE: post-emergence; for percentage damage caused to the plant, PRE Application IPOHE: pre-emergence
Protocol: as §1

[3] = system: Amaranthus palmeri (AMAPA); conditions: 130 g/h, evaluated after 13 days; for percentage damage caused to the plant, POST Application AMAPA: post-emergence; for percentage damage caused to the plant, PRE Application AMAPA: pre-emergence
Protocol: as §1

[4] = system: Amaranthus retoflexus (AMARE); conditions: 130 g/h, evaluated after 13 days; for percentage damage caused to the plant, POST Application AMARE: post-emergence; for percentage damage caused to the plant, PRE Application AMARE: pre-emergence
Protocol: as §1

[5] = system: Echinochloa crus-galli (ECHCG); conditions: 130 g/h, evaluated after 13 days; for percentage damage caused to the plant, POST Application ECHCG: post-emergence; for percentage damage caused to the plant, PRE Application ECHCG: pre-emergence
Protocol: as §1

CCS(=O)(=O)Nc1c(OC(F)(F)C(F)F)ccc(C(=O)Nc2nnnn2C)c1Cl [Compound 1.086]
percentage damage caused to the plant, POST Application SETFA [1]: 5 (5=80-100%) | percentage damage caused to the plant, PRE Application SETFA [1]: 4 (4=60-79%) | percentage damage caused to the plant, POST Application IPOHE [2]: 5 (5=80-100%) | percentage damage caused to the plant, PRE Application IPOHE [2]: 2 (2=20-39%) | percentage damage caused to the plant, POST Application AMAPA [3]: 5 (5=80-100%) | percentage damage caused to the plant, PRE Application AMAPA [3]: 5 (5=80-100%) | percentage damage caused to the plant, POST Application AMARE [4]: 5 (5=80-100%) | percentage damage caused to the plant, PRE Application AMARE [4]: 5 (5=80-100%) | percentage damage caused to the plant, POST Application ECHCG [5]: 5 (5=80-100%) | percentage damage caused to the plant, PRE Application ECHCG [5]: 5 (5=80-100%)

CCS(=O)(=O)N(C)c1c(OC(F)(F)F)ccc(C(=O)Nc2nnnn2C)c1Cl [Compound 1.080]
percentage damage caused to the plant, POST Application SETFA [1]: 5 (5=80-100%) | percentage damage caused to the plant, PRE Application SETFA [1]: 5 (5=80-100%) | percentage damage caused to the plant, POST Application IPOHE [2]: 5 (5=80-100%) | percentage damage caused to the plant, PRE Application IPOHE [2]: 5 (5=80-100%) | percentage damage caused to the plant, POST Application AMAPA [3]: 5 (5=80-100%) | percentage damage caused to the plant, PRE Application AMAPA [3]: 5 (5=80-100%) | percentage damage caused to the plant, POST Application AMARE [4]: 5 (5=80-100%) | percentage damage caused to the plant, PRE Application AMARE [4]: 5 (5=80-100%) | percentage damage caused to the plant, POST Application ECHCG [5]: 5 (5=80-100%) | percentage damage caused to the plant, PRE Application ECHCG [5]: 5 (5=80-100%)

COCCS(=O)(=O)Nc1c(OC(F)F)ccc(C(=O)Nc2nnnn2C)c1Cl [Compound 1.014]
percentage damage caused to the plant, POST Application SETFA [1]: 4 (4=60-79%) | percentage damage caused to the plant, PRE Application SETFA [1]: 1 (1=0-19%) | percentage damage caused to the plant, POST Application IPOHE [2]: 3 (3=40-59%) | percentage damage caused to the plant, PRE Application IPOHE [2]: 1 (1=0-19%) | percentage damage caused to the plant, POST Application AMAPA [3]: 5 (5=80-100%) | percentage damage caused to the plant, PRE Application AMAPA [3]: 5 (5=80-100%) | percentage damage caused to the plant, POST Application AMARE [4]: 5 (5=80-100%) | percentage damage caused to the plant, PRE Application AMARE [4]: 3 (3=40-59%) | percentage damage caused to the plant, POST Application ECHCG [5]: 4 (4=60-79%) | percentage damage caused to the plant, PRE Application ECHCG [5]: 1 (1=0-19%)

COCCS(=O)(=O)Nc1c(OC(F)(F)F)ccc(C(=O)Nc2nnnn2C)c1Cl [Compound 1.054]
percentage damage caused to the plant, POST Application SETFA [1]: 4 (4=60-79%) | percentage damage caused to the plant, PRE Application SETFA [1]: 1 (1=0-19%) | percentage damage caused to the plant, POST Application IPOHE [2]: 4 (4=60-79%) | percentage damage caused to the plant, PRE Application IPOHE [2]: 3 (3=40-59%) | percentage damage caused to the plant, POST Application AMAPA [3]: 5 (5=80-100%) | percentage damage caused to the plant, PRE Application AMAPA [3]: 5 (5=80-100%) | percentage damage caused to the plant, POST Application AMARE [4]: 5 (5=80-100%) | percentage damage caused to the plant, PRE Application AMARE [4]: 5 (5=80-100%) | percentage damage caused to the plant, POST Application ECHCG [5]: 5 (5=80-100%) | percentage damage caused to the plant, PRE Application ECHCG [5]: 1 (1=0-19%)

CC(C)CS(=O)(=O)Nc1c(OC(F)F)ccc(C(=O)Nc2nnnn2C)c1Cl [Compound 1.070]
percentage damage caused to the plant, POST Application SETFA [1]: 4 (4=60-79%) | percentage damage caused to the plant, PRE Application SETFA [1]: 3 (3=40-59%) | percentage damage caused to the plant, POST Application IPOHE [2]: 4 (4=60-79%) | percentage damage caused to the plant, PRE Application IPOHE [2]: 2 (2=20-39%) | percentage damage caused to the plant, POST Application AMAPA [3]: 5 (5=80-100%) | percentage damage caused to the plant, PRE Application AMAPA [3]: 4 (4=60-79%) | percentage damage caused to the plant, POST Application AMARE [4]: 5 (5=80-100%) | percentage damage caused to the plant, PRE Application AMARE [4]: 4 (4=60-79%) | percentage damage caused to the plant, POST Application ECHCG [5]: 4 (4=60-79%) | percentage damage caused to the plant, PRE Application ECHCG [5]: 3 (3=40-59%)

From US12715849B2, “Herbicidal tetrazole compounds” (SYNGENTA CROP PROTECTION AG, priority 2020, dated 2026)
